Molecular target: C5aR (Homo sapiens (Human), UniProt P21730)
Test: Chemotaxis assay using U937 cells (C5aR mediated migration)
Format: cell-based
Conditions: read-out: Mig IC50
In short: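 Migration toward 0.03 nM C5a, mixed with varying compound in the lower chamber (HBSS with 1% FBS), was measured over 1.5 h at 37° C through 5 μm filters. Upper chamber held 100,000 U937 cells treated overnight with 0.5 mM cAMP; migrated cells quantified by counts or CyQuant for IC50, SDF-1α as specificity control.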

Sequence of C5aR (P21730 whole entry): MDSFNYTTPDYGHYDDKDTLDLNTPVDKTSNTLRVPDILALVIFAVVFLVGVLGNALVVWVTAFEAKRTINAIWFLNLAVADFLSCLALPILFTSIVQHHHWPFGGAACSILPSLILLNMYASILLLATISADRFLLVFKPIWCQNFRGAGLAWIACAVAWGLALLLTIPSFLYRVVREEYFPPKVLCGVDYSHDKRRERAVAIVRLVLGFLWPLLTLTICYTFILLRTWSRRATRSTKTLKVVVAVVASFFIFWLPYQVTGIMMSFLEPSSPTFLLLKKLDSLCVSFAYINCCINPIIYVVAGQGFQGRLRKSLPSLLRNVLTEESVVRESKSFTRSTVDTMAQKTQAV

Structure (SMILES)	IC50 [nM]
Cc1cccc(OCC(C)C)c1-n1nc2c(c1-c1ccc(CO)cc1)CN(c1ccccc1C(C)(C)C)CC2 [Example 1.450]	50 to 500
CCc1cccc(CC)c1-n1nc2c(c1-c1ccc(NC(N)=O)cc1)CN(Cc1cc(Cl)ccc1OC(C)C)CC2 [Example 1.284]	5 to 50
COc1cccc(C)c1-n1nc2c(c1-c1ccc(NC(N)=O)cc1)CN(c1ccccc1C(C)(C)C)CC2 [Example 1.456]	5 to 50
CCC(C)N1CCc2nn(-c3c(C)cccc3OCC(C)C)c(-c3ccc(NC(N)=O)c(F)c3)c2C1 (stereo not drawn) [Example 1.259]	5 to 50
Cc1cccc(C)c1-n1nc2c(c1-c1ccc(C(N)=O)cc1)CN(c1ccccc1C(C)C)CC2 [Example 1.470]	5 to 50
Cc1cccc(OCC(C)C)c1-n1nc2c(c1-c1ccc(NC(N)=O)cc1)CN(Cc1ccccc1)CC2 [Example 1.382]	5 to 50
CCc1cccc(CC)c1-n1nc2c(c1-c1ccc(NC(N)=O)cc1)CN(Cc1cc(Cl)ccc1C(F)(F)F)CC2 [Example 1.292]	5 to 50
COc1cccc(F)c1-n1nc2c(c1-c1cc(F)c(NC(N)=O)cc1F)CN(c1ncc(Cl)cc1Cl)CC2 [Example 1.179]	5 to 50
CCc1cccc(CC)c1-n1nc2c(c1-c1cc(F)c(NC(N)=O)cc1F)CN(CC)C(C)(C)C2 [Example 1.009]	5 to 50
Cc1cccc(OCC(C)C)c1-n1nc2c(c1-c1ccc(NC(N)=O)cc1)CN(Cc1cc(Cl)ccc1Cl)CC2(C)C [Example 1.261]	> 500
CCC(C)(C)N1CCc2nn(-c3c(C)cccc3OCC(C)C)c(-c3ccc(NC(N)=O)c(F)c3)c2C1 [Example 1.230]	5 to 50
Cc1cnc(N2CCc3nn(-c4c(C)cccc4C)c(-c4cc(F)c(NC(N)=O)cc4F)c3C2)c(Cl)c1 [Example 1.115]	≤ 5
Cc1cccc(OCC(C)C)c1-n1nc2c(c1-c1ccc(NC(=O)N(C)C)cc1)CN(c1ncc(C(F)(F)F)cc1F)CC2 [Example 1.289]	> 500
CCc1cccc(CC)c1-n1nc2c(c1-c1cc(F)c(NC(N)=O)cc1F)CN(Cc1cc(Cl)ccc1C(F)(F)F)CC2 [Example 1.069]	≤ 5

Next, values leading:

IC50 [nM]	Structure (SMILES)
≤ 5	CC(C)COc1ccccc1-n1nc2c(c1-c1cc(F)c(NC(N)=O)cc1F)CN(c1ncc(C(F)(F)F)cc1F)CC2 [Example 1.205]
≤ 5	CCc1cccc(CC)c1-n1nc2c(c1-c1cc(F)c(NC(N)=O)cc1F)CN(C(C)(C)c1cccc(OC)c1)CC2 [Example 1.156]
≤ 5	CCc1cccc(CC)c1-n1nc2c(c1-c1cc(F)c(NC(N)=O)cc1F)CN(Cc1ccc(C(F)(F)F)cc1C)CC2 [Example 1.064]
≤ 5	Cc1cccc(C)c1-n1nc2c(c1-c1cc(F)c(NC(N)=O)cc1F)CN(c1ncc(C(C)C)cc1Cl)CC2 [Example 1.113]
≤ 5	CCc1cccc(CC)c1-n1nc2c(c1-c1cc(F)c(NC(N)=O)cc1F)CN(c1ncc(Cl)cc1Cl)[C@H](C)C2 [Example 1.018]
≤ 5	NC(=O)Nc1cc(F)c(-c2c3c(nn2-c2ccccc2OCC(F)(F)F)CCN(c2ncc(Cl)cc2Cl)C3)cc1F [Example 1.143]
≤ 5	CCc1cccc(CC)c1-n1nc2c(c1-c1cc(F)c(NC(N)=O)cc1F)CN(C(c1ccccc1)C(C)(C)O)CC2 (stereo not drawn) [Example 1.080]
